The test system of data set [1] is E. faecium SR7917. Put plainly: MIC by CLSI standard method (Test Example 1). The format is cell-based. The settings on record: Enterococcus faecium, cation-adjusted Mueller Hinton Broth, about 5×10^5 CFU/mL. How it is done: (§1) Minimal inhibitory concentration (MIC: μg/ml) against different strains of bacteria was assayed according to the standard method recommended by CLSI (clinical and laboratory standards institute). Samples were prepared from test compound solution in DMSO (1280 μg/mL) by two fold (serial) dilution with DMSO. The sample was added to bacteria suspension at the concentration of 5%, and MIC was determined. Mueller Hinton Broth, which has been adjusted for cation concentration, was used for culture media in this test. The inoculation concentration was about 5×10^5 CFU/mL.

In data set [2] the test system is E. faecalis SR7914. Put plainly: MIC by CLSI standard method (Test Example 1). It is filed as cell-based. The following applies: Enterococcus faecalis, cation-adjusted Mueller Hinton Broth, about 5×10^5 CFU/mL. How it is done:
as §1

Data set [3] relates to S. aureus FDA 209P. The data set is described as follows: MIC by CLSI standard method (Test Example 1). The format is cell-based. The settings on record: Staphylococcus aureus, FDA209P, cation-adjusted Mueller Hinton Broth, about 5×10^5 CFU/mL. How it is done:
as §1

Data set [4] relates to S. aureus smith. The data set is described as follows: MIC by CLSI standard method (Test Example 1). The following applies: Staphylococcus aureus, cation-adjusted Mueller Hinton Broth, about 5×10^5 CFU/mL. The format is cell-based. As for the experimental part:
as §1

The subject of data set [5] is E. faecalis ATCC 29212. Put plainly: MIC by CLSI standard method (Test Example 1). It is filed as cell-based. The settings on record: Enterococcus faecalis, ATCC29212, cation-adjusted Mueller Hinton Broth, about 5×10^5 CFU/mL. As for the experimental part: as §1
The subject of data set [6] is S. aureus ATCC 700787. The data set is described as follows: MIC by CLSI standard method (Test Example 1). The format is cell-based. The settings on record: Staphylococcus aureus, ATCC700787, cation-adjusted Mueller Hinton Broth, about 5×10^5 CFU/mL. How it is done: as §1
Data set [7] deals with S. aureus SR3637. Put plainly: MIC of quinolone compounds (Test Example 2). The format is cell-based. The following applies: Staphylococcus aureus, procedure of Test Example 1. How it is done:
as §1
(§2) The quinolone compounds of the invention were tested for antimicrobial activity according to the procedure in Test Example 1.

The test system of data set [8] is E. faecalis SR7914. Put plainly: MIC of quinolone compounds (Test Example 2). The format is cell-based. The settings on record: Enterococcus faecalis, procedure of Test Example 1. How it is done:
as §1, §2

The subject of data set [9] is S. aureus FDA 209P. The data set is described as follows: MIC of quinolone compounds (Test Example 2). The following applies: Staphylococcus aureus, FDA209P, procedure of Test Example 1. It is filed as cell-based. As for the experimental part:
as §1, §2

Data set [10] has as its system E. faecalis ATCC 29212. The data set is described as follows: MIC of quinolone compounds (Test Example 2). It is filed as cell-based. The following applies: Enterococcus faecalis, ATCC29212, procedure of Test Example 1. As for the experimental part: as §1, §2

Bounds are passed on as bounds.

The values that follow come from patent publication US8148362B2, “Compound having heterocyclic ring” (Research Foundation Itsuu Laboratory, priority 2006, dated 2012).

By MIC is commonly meant the lowest concentration that inhibits growth of the organism. Broadly, the melting point is the temperature of the solid-liquid transition.

For the molecule `CC(=O)NC[C@H]1CN(c2cc(F)c(N3CCNN(C(=O)Nc4nccs4)CC3)c(F)c2)C(=O)O1` [Example 83], the MIC in data set [1], in data set [2], in data set [3], in data set [4], in [5] and in [6] was ≤ 1 µg/mL throughout.

Regarding `COc1c(N2CCNOCC2)c(F)cc2c(=O)c(C(=O)O)cn(C3CC3)c12` [Compound (71)], the melting point was 222 to 224 °C. Further, the MIC in [7] is ≤ 1 µg/mL. Also, the MIC in data set [8] was ≤ 1 µg/mL. In data set [9], the MIC was ≤ 1 µg/mL. The MIC in data set [10] is ≤ 1 µg/mL.

For the molecule `CC(=O)NC[C@H]1CN(c2cc(F)c(N3CCNN(C(=O)Nc4ccncc4)CC3)c(F)c2)C(=O)O1` [Example 85], the MIC in data set [1], in data set [2], in [3], in data set [4], in [5] and in data set [6] was ≤ 1 µg/mL each time.

With `CC(=O)NC[C@H]1CN(c2cc(F)c(N3CCn4c(=O)c5cccnc5n4CC3)c(F)c2)C(=O)O1` [Example 81], the MIC in [1], in data set [2], in data set [3], in [4], in [5] and in data set [6] was ≤ 1 µg/mL each time.

For the molecule `O=C(NC[C@H]1CN(c2cc(F)c(N3CCNN(C(=O)Nc4ccncc4)CC3)c(F)c2)C(=O)O1)C(F)F` [Example 86], the MIC in data set [1], in data set [2], in [3], in data set [4], in data set [5] and in [6] was ≤ 1 µg/mL in each case.

Turning to `O=C(NC[C@H]1CN(c2cc(F)c(N3CCNN(C(=O)Nc4nccs4)CC3)c(F)c2)C(=O)O1)C(F)F` [Example 84], the MIC in [1], in [2], in data set [3], in data set [4], in data set [5] and in data set [6] was ≤ 1 µg/mL in each case.

As for `O=C(NC[C@H]1CN(c2cc(F)c(N3CCn4c(=O)c5cccnc5n4CC3)c(F)c2)C(=O)O1)C(F)F` [Example 82], the MIC in data set [1], in [2], in [3], in data set [4], in data set [5] and in data set [6] was ≤ 1 µg/mL each time.

As for `CC(=O)NC[C@H]1CN(c2cc(F)c(N3CCNN(C(=O)CO)CC3)c(F)c2)C(=O)O1` [Example 91], the MIC in [1], in [2], in data set [3], in [4], in data set [5] and in [6] was ≤ 1 µg/mL in each case.
